Consider ten molecules from ChEMBL document CHEMBL1201862, “PubChem BioAssay data set” (2004).

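Values below derive from 48-hour exposures of cells grown in 96-well plates, with endpoints linearly interpolated between the two concentrations bracketing the appropriate inhibition level. Here, GI50 denotes the concentration required for 50% inhibition of growth.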 Active and inactive are the calls of the source. Rule as the data show it: active = GI50 up to about 1.1 µM and inactive = higher. A value given as a limit tells only on which side of the number the result lay.

Assay in all cases: DTP human tumour cell line panel, 48 h
Experiment [1] concerns A549.
Experiment [2] relates to PC-3.
For experiment [3], the system named is UACC-62.
The subject of experiment [4] is SK-MEL-5.
The test system of experiment [5] is NCI/ADR-RES.
Experiment [6] relates to SF-539.
Experiment [7] relates to NCI-H23.
Experiment [8] has as its system T47D.
In experiment [9] the test system is COLO 205.
Experiment [10] deals with KM12.
In experiment [11] the test system is RXF 393.
In experiment [12] the test system is MDA-MB-231.
The test system of experiment [13] is HCT-116.
Experiment [14] relates to NCI-H226.
The subject of experiment [15] is TK-10.
For experiment [16], the system named is HL-60.
For experiment [17], the system named is SK-MEL-2.
In experiment [18] the test system is OVCAR-3.
For experiment [19], the system named is HCC 2998.
The test system of experiment [20] is K562.

Consider `COc1cc2c(cc1OC)C1C(O)C(OC)C=C3CC[N+](C)(C2)C31` (stereo not given), for which the GI50 in experiment [1], in [2], in [3], in [4], in experiment [5] and in experiment [6] was > 100 µM (inactive) in each case. For the same molecule, the GI50 in experiment [7], in experiment [8], in experiment [9], in [10], in experiment [11] and in experiment [12] was > 100 µM (inactive) throughout. For the same molecule, the GI50 in experiment [13], in [14], in [15], in experiment [16], in [17] and in [18] was > 100 µM (inactive) in each case. For the same molecule, the GI50 (as a rule, the concentration at which growth is held to half of that of the control) in experiment [19] is > 100 µM (inactive).
Turning to `O=c1ccc2c(Cl)cccc2o1`, the GI50 in experiment [1], in experiment [2], in [3], in [20], in experiment [4] and in experiment [5] was > 100 µM (inactive) in each case. Besides, the GI50 was > 100 µM (inactive) in experiment [6]; > 100 µM (inactive) in experiment [7]; 46.7 µM (inactive) in experiment [8]; > 100 µM (inactive) in experiment [9]; > 100 µM (inactive) in [10]; > 100 µM (inactive) in experiment [11]. Further, the GI50 in [12], in experiment [13], in [14], in experiment [15], in [16] and in experiment [17] was > 100 µM (inactive) throughout. Besides, the GI50 in [18] was > 100 µM (inactive); in experiment [19], 3.74 µM (inactive).
Regarding `COc1cc(C2c3cc4c(cc3OC(N3CCOCC3)C2C)OCO4)cc(OC)c1OC` (stereo not given), the GI50 in [1] was 1.56 µM (inactive); in experiment [2], 1.19 µM (inactive); in [3], 0.537 µM (active); in experiment [20] it was 0.397 µM (active); in [4], 0.378 µM (active); in [5] it was 0.335 µM (active). Moreover, the GI50 in [6] was 0.462 µM (active); in [7], 1.38 µM (inactive); in experiment [8] it was 0.323 µM (active); in experiment [10], 0.367 µM (active); in experiment [11] it was 0.282 µM (active); in [12] it was 2.84 µM (inactive). Also, the GI50 is 0.65 µM (active) in experiment [13]; 2.6 µM (inactive) in [14]; 4.42 µM (inactive) in experiment [15]; 0.412 µM (active) in [16]; 2.02 µM (inactive) in experiment [17]; 0.589 µM (active) in experiment [18]. In addition, the GI50 in experiment [19] was 1.23 µM (inactive).
Turning to `CC(NC(=O)c1ccc(OP(=O)(OCc2ccc([N+](=O)[O-])o2)N(C)CCCCCl)cc1)c1ccc(OCC2CCCCC2)c(C(N)=O)c1` (stereo not given), the GI50 in experiment [1] was 2.7 µM (inactive); in experiment [2] it was 3.44 µM (inactive); in experiment [3] it was 2.29 µM (inactive); in experiment [20], 2.42 µM (inactive); in experiment [4], 1.66 µM (inactive); in experiment [5], > 36.6 µM (inactive). The GI50 in [6] is 2.56 µM (inactive); in [7], 5.19 µM (inactive); in experiment [8], 2.06 µM (inactive); in experiment [9] it was 2.61 µM (inactive); in experiment [10], 3.36 µM (inactive); in experiment [11], 2.25 µM (inactive). Also, the GI50 in experiment [12] was 2.58 µM (inactive); in [13], 2.88 µM (inactive); in [14], 3.98 µM (inactive); in experiment [15], 6.43 µM (inactive); in [16], 3.33 µM (inactive); in [17], 3.05 µM (inactive). Also, the GI50 in experiment [18] was 2.57 µM (inactive); in experiment [19], 3.14 µM (inactive).
As for `CCOC(=O)c1ccc(/N=c2\oc3ccc(OC)cc3cc2-c2nc3ccccc3[nH]2)cc1`, the GI50 in [1] was 51.2 µM (inactive); in experiment [2], > 100 µM (inactive); in experiment [3], > 100 µM (inactive); in [20], 72.8 µM (inactive); in experiment [4], 5.66 µM (inactive); in experiment [5] it was > 100 µM (inactive). Besides, the GI50 in experiment [6] was 1.99 µM (inactive); in [7], 10.4 µM (inactive); in [8], > 100 µM (inactive); in experiment [9] it was 73.5 µM (inactive); in [10] it was > 100 µM (inactive); in [11], 40.6 µM (inactive). The GI50 is 53.7 µM (inactive) in experiment [12]; > 100 µM (inactive) in experiment [13]; 0.516 µM (active) in experiment [14]; > 100 µM (inactive) in experiment [15]; > 100 µM (inactive) in experiment [16]; > 100 µM (inactive) in experiment [17]. Besides, the GI50 was > 100 µM (inactive) in [18] and 86.5 µM (inactive) in [19].
For `Clc1cc(OCc2nn3c(Cc4ccccc4)nnc3s2)ccc1OCc1nn2c(Cc3ccccc3)nnc2s1`, the GI50 is 32.2 µM (inactive) in [1]; 48.4 µM (inactive) in experiment [2]; 40.6 µM (inactive) in [3]; 95.9 µM (inactive) in experiment [20]; 25.4 µM (inactive) in experiment [4]; 59.3 µM (inactive) in [5]. Further, the GI50 was 16.2 µM (inactive) in experiment [6]; 38.9 µM (inactive) in experiment [7]; 20.9 µM (inactive) in [8]; > 100 µM (inactive) in [9]; 79.8 µM (inactive) in [10]; 27.7 µM (inactive) in experiment [11]. Further, the GI50 in experiment [12] is 18.5 µM (inactive); in [13], 53.5 µM (inactive); in experiment [14] it was 54.6 µM (inactive); in experiment [15] it was 29.4 µM (inactive); in [16], 50.2 µM (inactive); in [17], > 100 µM (inactive). In addition, the figures for the GI50 in experiment [18] and in [19] were 29.9 µM (inactive) and 44.1 µM (inactive), respectively.
As to `COc1c(OC)c(OC)c2c(=O)cc(-c3ccc(OC(C)C)cc3)oc2c1OC`, the GI50 in experiment [1] was 24.2 µM (inactive); in [2] it was 18.8 µM (inactive); in experiment [3], 15.8 µM (inactive); in [20], 5.25 µM (inactive); in experiment [4] it was 8.97 µM (inactive); in [5] it was 17.5 µM (inactive). Moreover, the GI50 was 19.7 µM (inactive) in experiment [6]; 27.6 µM (inactive) in [7]; 7.03 µM (inactive) in experiment [8]; 21.4 µM (inactive) in [9]; 30.9 µM (inactive) in experiment [10]; > 33.5 µM (inactive) in [11]. The GI50 in experiment [12] was 29.3 µM (inactive); in experiment [13], 10.8 µM (inactive); in experiment [14], 15.1 µM (inactive); in [15] it was > 38.6 µM (inactive); in [16], 2.07 µM (inactive); in experiment [17], 20.8 µM (inactive). In addition, the GI50 in experiment [18] was 17.9 µM (inactive); in experiment [19] it was 28.4 µM (inactive).
For `COc1ccccc1Cn1nc(OC)c2cc([N+](=O)[O-])ccc21`, the GI50 in [1] was 63.2 µM (inactive); in experiment [2] it was > 100 µM (inactive); in [20] it was > 100 µM (inactive); in [4] it was > 53.7 µM (inactive); in experiment [5], 59.3 µM (inactive); in experiment [6], 13.8 µM (inactive). The GI50 in experiment [7] was 35.6 µM (inactive); in [8] it was > 100 µM (inactive); in experiment [9] it was > 100 µM (inactive); in experiment [10], > 100 µM (inactive); in experiment [11] it was 1.88 µM (inactive); in experiment [12], > 41.1 µM (inactive). Moreover, the GI50 in [13] was 32.7 µM (inactive); in experiment [14], 42.1 µM (inactive); in experiment [15], 12.5 µM (inactive); in experiment [16] it was > 100 µM (inactive); in experiment [17], 19.7 µM (inactive); in experiment [18], > 100 µM (inactive). The GI50 in experiment [19] was > 100 µM (inactive).
Regarding `COC1(O)C(=O)c2ccccc2OC1(OC)c1ccccc1` (stereo not given), the GI50 is > 100 µM (inactive) in [1]; > 100 µM (inactive) in [2]; > 100 µM (inactive) in experiment [3]; 42 µM (inactive) in [20]; > 100 µM (inactive) in experiment [4]; 77.8 µM (inactive) in [5]. Further, the GI50 in [6], in [7], in experiment [8], in experiment [9], in experiment [11] and in experiment [12] was > 100 µM (inactive) throughout. Further, the GI50 was > 100 µM (inactive) in experiment [13]; > 100 µM (inactive) in [14]; > 100 µM (inactive) in [15]; 50.4 µM (inactive) in experiment [16]; > 100 µM (inactive) in experiment [17]; > 100 µM (inactive) in experiment [18]. Further, in experiment [19], the GI50 is > 100 µM (inactive).
With `CCCCN/N=N/c1cn(C2OC(CO)C(O)C2O)c(=O)[nH]c1=O` (stereo not given), the GI50 in experiment [1], in experiment [2], in [3], in experiment [4], in experiment [5] and in [6] was > 100 µM (inactive) in each case. The GI50 in experiment [7], in experiment [8], in experiment [9], in experiment [10], in [11] and in [12] was > 100 µM (inactive) each time. Also, the GI50 in [13], in experiment [14], in experiment [15], in experiment [16], in [17] and in experiment [18] was > 100 µM (inactive) in each case. The GI50 in experiment [19] is > 100 µM (inactive).
